According to patent US11304946B2, “2-hetarylpyrimidine-4-carboxamides as aryl hydrocarbon receptor antagonists” (Bayer Aktiengesellschaft, priority 2017, dated 2022):

Tests used:
Human AhR = target: T1, Human AhR (Homo sapiens, UniProt P35869); assay: Transactivation assay in human cell line (in vitro assay 1: antagonism); type: cell-based; settings: U87 glioblastoma cells, AHR inducible (DRE) firefly luciferase reporter, 150 μM kynurenic acid, 20 hours
T1 construct: host or cells: U87 glioblastoma cells, stably transfected with DRE-driven firefly luciferase and constitutive renilla reporter constructs
T1 sequence (P35869 11-848): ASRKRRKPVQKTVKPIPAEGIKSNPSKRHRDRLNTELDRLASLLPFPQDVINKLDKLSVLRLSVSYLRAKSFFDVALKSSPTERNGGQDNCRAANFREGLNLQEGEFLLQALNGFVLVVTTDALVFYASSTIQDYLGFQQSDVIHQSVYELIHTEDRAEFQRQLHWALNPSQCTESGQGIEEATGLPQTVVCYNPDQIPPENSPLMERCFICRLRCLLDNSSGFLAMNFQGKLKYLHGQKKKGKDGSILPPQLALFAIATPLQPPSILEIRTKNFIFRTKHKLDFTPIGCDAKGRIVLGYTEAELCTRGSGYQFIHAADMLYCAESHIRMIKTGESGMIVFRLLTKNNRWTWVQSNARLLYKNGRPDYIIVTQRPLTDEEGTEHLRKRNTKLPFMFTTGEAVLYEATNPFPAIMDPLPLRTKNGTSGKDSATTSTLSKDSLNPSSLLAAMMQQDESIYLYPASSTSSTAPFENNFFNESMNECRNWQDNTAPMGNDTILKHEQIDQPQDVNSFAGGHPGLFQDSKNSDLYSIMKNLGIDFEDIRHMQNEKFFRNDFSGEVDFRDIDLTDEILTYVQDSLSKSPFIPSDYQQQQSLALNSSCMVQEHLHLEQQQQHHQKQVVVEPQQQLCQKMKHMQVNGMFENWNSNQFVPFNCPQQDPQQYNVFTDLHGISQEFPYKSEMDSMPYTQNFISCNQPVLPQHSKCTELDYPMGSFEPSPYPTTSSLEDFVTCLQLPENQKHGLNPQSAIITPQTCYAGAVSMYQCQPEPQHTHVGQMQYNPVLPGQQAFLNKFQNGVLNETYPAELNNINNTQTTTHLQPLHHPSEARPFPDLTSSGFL
Outline: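 U87 glioblastoma cells with endogenous AHR, stably carrying DRE-driven firefly luciferase and constitutive Renilla reporters, prestimulated with kynurenic acid before compound. Dual luciferase read-out; Renilla signal used to flag toxicity.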

Mouse AhR = target: T2, Mouse AhR (Mus musculus, UniProt P30561); assay: Transactivation assay in mouse cell line (in vitro assay 2: antagonism); type: cell-based; settings: Hepa 1c1c7 cells, AHR inducible (DRE) firefly luciferase reporter, 200 μM kynurenic acid, 20 hours
T2 sequence (P30561 1-848): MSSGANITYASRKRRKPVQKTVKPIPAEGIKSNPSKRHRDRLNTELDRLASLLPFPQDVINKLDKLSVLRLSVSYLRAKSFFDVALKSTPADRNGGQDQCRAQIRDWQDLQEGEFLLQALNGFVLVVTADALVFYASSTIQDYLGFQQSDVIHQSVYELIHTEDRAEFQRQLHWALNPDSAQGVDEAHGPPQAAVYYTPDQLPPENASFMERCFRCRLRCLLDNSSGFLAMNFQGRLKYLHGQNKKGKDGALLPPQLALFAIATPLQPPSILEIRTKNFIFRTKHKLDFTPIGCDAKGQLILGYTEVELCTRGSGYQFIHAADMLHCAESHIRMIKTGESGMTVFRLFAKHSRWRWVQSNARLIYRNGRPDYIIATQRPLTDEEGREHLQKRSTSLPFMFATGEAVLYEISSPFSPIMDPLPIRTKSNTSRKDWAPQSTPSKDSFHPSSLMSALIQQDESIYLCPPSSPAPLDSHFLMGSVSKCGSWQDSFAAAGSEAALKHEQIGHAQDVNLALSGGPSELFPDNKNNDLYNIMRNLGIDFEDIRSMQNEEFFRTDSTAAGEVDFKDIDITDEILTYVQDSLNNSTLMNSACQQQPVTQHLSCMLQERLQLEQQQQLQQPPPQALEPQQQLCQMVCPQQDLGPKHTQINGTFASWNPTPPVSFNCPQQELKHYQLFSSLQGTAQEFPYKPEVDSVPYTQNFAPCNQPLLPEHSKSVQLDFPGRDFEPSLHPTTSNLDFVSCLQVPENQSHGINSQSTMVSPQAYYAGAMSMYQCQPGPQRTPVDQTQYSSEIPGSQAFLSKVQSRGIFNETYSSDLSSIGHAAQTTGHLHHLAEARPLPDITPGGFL
Description: Transactivation Assay in Mouse Cell Line (In Vitro Assay 2)
Transactivation assay was carried out in Hepa 1c1c7 cells (ATCC #CRL-2026) endogenously expressing AHR. In addition the cells were stably transfected with an AHR inducible firefly luciferase reporter gene construct that carried AHR-binding sites (DRE) in its promoter. Kynurenic acid is an endogenous AHR activating ligand and was used to prestimulate test cells prior to testing the antagonistic properties of compounds.
In Vitro Assay 2: Antagonism in Mouse Cell Line
Firefly luciferase activity was determined by the SteadyGlo Luciferase Assay System (Promega, #E2550).

| SMILES | IC50 (Human AhR) | IC50 (Mouse AhR) |
| --- | --- | --- |
| Cc1nn(C)cc1-c1nc(C(=O)N[C@@H](C)CO)cc(-c2ccc(Cl)cc2)n1 [Example 83, 6-(4-chlorophenyl)-2-(1,3-dimethyl-1H-pyrazol-4-yl)-N-[(2S)-1-hydroxypropan-2-yl]pyrimidine-4-carboxamide] | 54.2 nM | 1510 nM |
| COc1ccncc1-c1nc(C(=O)N[C@@H](C)CO)cc(-c2ccc(OC(F)(F)F)cc2)n1 [Example 40, N-[(2S)-1-hydroxypropan-2-yl]-2-(4-methoxypyridin-3-yl)-6-[4-(trifluoromethoxy)phenyl]pyrimidine-4-carboxamide] | 4.24 nM | 42.6 nM |
| Cn1cc(-c2nc(C(=O)N[C@H](CO)C3CC3)cc(-c3ccc(OC(F)(F)F)cc3)n2)cn1 [Example 99, N-[(1S)-1-cyclopropyl-2-hydroxyethyl]-2-(1-methyl-1H-pyrazol-4-yl)-6-[4-(trifluoromethoxy)phenyl]pyrimidine-4-carboxamide] | 17.6 nM | 21.5 nM |
| C[C@@H](CO)NC(=O)c1cc(-c2ccc(OC(F)(F)F)cc2)nc(-c2cccnc2)n1 [Example 1, N-[(2S)-1-hydroxypropan-2-yl]-2-(pyridin-3-yl)-6-[4-(trifluoromethoxy)phenyl]pyrimidine-4-carboxamide] | 0.885 nM | 2.03 nM |
| C[C@@H](CO)NC(=O)c1cc(-c2ccc(Cl)cc2)nc(-c2ccc(Cl)s2)n1 [Example 72, 6-(4-chlorophenyl)-2-(5-chlorothiophen-2-yl)-N-[(2S)-1-hydroxypropan-2-yl]pyrimidine-4-carboxamide] | 32.6 nM | 98.2 nM |
| Cn1cc(-c2nc(C(=O)N[C@H]3COC[C@H]3O)cc(-c3ccc(OC(F)(F)F)cc3)n2)cn1 [Example 103, N-[(3S,4S)-4-hydroxytetrahydrofuran-3-yl]-2-(1-methyl-1H-pyrazol-4-yl)-6-[4-(trifluoromethoxy)phenyl]pyrimidine-4-carboxamide] | 6.74 nM | 5.82 nM |
| Cn1cc(-c2nc(C(=O)N[C@@H]3CS(=O)(=O)C[C@H]3O)cc(-c3ccc(OC(F)(F)F)cc3)n2)cn1 (relative stereo) [Example 100, N-[(trans)-4-hydroxy-1,1-dioxo-1lambda^6-thiolan-3-yl]-2-(1-methyl-1H-pyrazol-4-yl)-6-[4-(trifluoromethoxy)phenyl]pyrimidine-4-carboxamide] | 10.1 nM | 8.18 nM |
| C[C@@H](CO)NC(=O)c1cc(-c2ccc(OC(F)(F)F)cc2)nc(-c2ccc(C#N)s2)n1 [Example 28, 2-(5-cyanothiophen-2-yl)-N-[(2S)-1-hydroxypropan-2-yl]-6-[4-(trifluoromethoxy)phenyl]pyrimidine-4-carboxamide] | 167 nM | 229 nM |
| Cn1cc(-c2nc(C(=O)N[C@@H]3COC[C@@H]3O)cc(-c3ccc(OC(F)(F)F)cc3)n2)cn1 (relative stereo) [Example 105, N-[(cis)-4-hydroxyoxolan-3-yl]-2-(1-methyl-1H-pyrazol-4-yl)-6-[4-(trifluoromethoxy)phenyl]pyrimidine-4-carboxamide] | 8.48 nM | 6.01 nM |
| Cn1cc(-c2nc(C(=O)NC3CCCC(F)(F)C3O)cc(-c3ccc(OC(F)(F)F)cc3)n2)cn1 (stereo not drawn) [Example 106, N-(3,3-difluoro-2-hydroxycyclohexyl)-2-(1-methyl-1H-pyrazol-4-yl)-6-[4-(trifluoromethoxy)phenyl]pyrimidine-4-carboxamide] | 7.32 nM | 20 nM |
| Cn1cc(-c2nc(C(=O)NC(CO)Cc3cccnc3)cc(-c3ccc(OC(F)(F)F)cc3)n2)cn1 (stereo not drawn) [Example 93, N-[1-hydroxy-3-(pyridin-3-yl)propan-2-yl]-2-(1-methyl-1H-pyrazol-4-yl)-6-[4-(trifluoromethoxy)phenyl]pyrimidine-4-carboxamide] | 34.1 nM | 16.5 nM |

More lines, now with the values ahead:

| IC50 (Human AhR) | IC50 (Mouse AhR) | SMILES |
| --- | --- | --- |
| 16.3 nM | 28.8 nM | Cc1ccsc1-c1nc(C(=O)N[C@@H](C)CO)cc(-c2ccc(Cl)cc2)n1 [Example 73, 6-(4-chlorophenyl)-N-[(2S)-1-hydroxypropan-2-yl]-2-(3-methylthiophen-2-yl)pyrimidine-4-carboxamide] |
| 14.3 nM | 58.1 nM | Cn1cc(-c2nc(C(=O)NCC(C)(C)O)cc(-c3ccc(Cl)cc3)n2)cn1 [Example 13, 6-(4-chlorophenyl)-N-(2-hydroxy-2-methylpropyl)-2-(1-methyl-1H-pyrazol-4-yl)pyrimidine-4-carboxamide] |
| 3.23 nM | 4.71 nM | Cc1cscc1-c1nc(C(=O)N[C@@H](C)CO)cc(-c2ccc(Cl)cc2)n1 [Example 71, 6-(4-chlorophenyl)-N-[(2S)-1-hydroxypropan-2-yl]-2-(4-methylthiophen-3-yl)pyrimidine-4-carboxamide] |
| 379 nM | 2130 nM | Cc1ncc(-c2nc(C(=O)NCC(C)(C)O)cc(-c3ccc(OC(F)(F)F)cc3)n2)cn1 [Example 21, N-(2-hydroxy-2-methylpropyl)-2′-methyl-6-[4-(trifluoromethoxy)phenyl][2,5′-bipyrimidine]-4-carboxamide] |
| 10.3 nM | 17.3 nM | CC(C)(O)CNC(=O)c1cc(-c2ccc(Cl)cc2)nc(-c2cncnc2)n1 [Example 55, 6-(4-chlorophenyl)-N-(2-hydroxy-2-methylpropyl)[2,5′-bipyrimidine]-4-carboxamide] |
| 1.1 nM | 2.84 nM | C[C@@H](CO)NC(=O)c1cc(-c2ccc(Cl)cc2)nc(-c2cccnc2)n1 [Example 9, 6-(4-chlorophenyl)-N-[(2S)-1-hydroxypropan-2-yl]-2-(pyridin-3-yl)pyrimidine-4-carboxamide] |
| 1.38 nM | 8.42 nM | CC(C)(O)CNC(=O)c1cc(-c2ccc(Cl)cc2)nc(-c2cccnc2)n1 [Example 10, 6-(4-chlorophenyl)-N-(2-hydroxy-2-methylpropyl)-2-(pyridin-3-yl)pyrimidine-4-carboxamide] |
| 2.64 nM | 30.8 nM | COc1ccncc1-c1nc(C(=O)N[C@@H](C)CO)cc(-c2ccc(Cl)cc2)n1 [Example 80, 6-(4-chlorophenyl)-N-[(2S)-1-hydroxypropan-2-yl]-2-(4-methoxypyridin-3-yl)pyrimidine-4-carboxamide] |
| 33.6 nM | 62.9 nM | C[C@@H](CO)NC(=O)c1cc(-c2ccc(Cl)cc2)nc(-c2ccnn2C)n1 [Example 74, 6-(4-chlorophenyl)-N-[(2S)-1-hydroxypropan-2-yl]-2-(1-methyl-1H-pyrazol-5-yl)pyrimidine-4-carboxamide] |
| 8.05 nM | 110 nM | Cc1nn(C)cc1-c1nc(C(=O)NCC(C)(C)O)cc(-c2ccc(OC(F)(F)F)cc2)n1 [Example 25, 2-(1,3-dimethyl-1H-pyrazol-4-yl)-N-(2-hydroxy-2-methylpropyl)-6-[4-(trifluoromethoxy)phenyl]pyrimidine-4-carboxamide] |
